Assay [1] deals with T1, TRPA1 (cultured rat dorsal root ganglia neurons) (Rattus norvegicus, UniProt Q6RI86).
T1 construct: calcium assay data obtained in primary culture of rat dorsal ganglia neurons; from tissue; host or cells: primary culture of dorsal root ganglia neurons from male SD rats
Nature of the assay: PF-4840154 (10 μM)-induced Ca2+ fluorescence measurements in cultured rat dorsal root ganglia neurons. Format: cell-based. The conditions noted are these: against 10 μM PF-4840154-induced [Ca2+]i mobilization, primary culture of rat dorsal ganglia neurons. As for the experimental part:
PF-4840154 (10 μM)-Induced Ca^2+ Fluorescence Measurements in Cultured Rat Dorsal Root Ganglia Neurons
Male SD rats (˜50 g, Charles River, Italy) were terminally anaesthetized and decapitated. Dorsal root ganglia were removed and placed in cold Hank's balanced salt solution (HBSS) before being transferred to collagenase (2 mg/ml) and trypsin (1 mg/ml) for 35 min at 37° C. The ganglia, placed in cold DMEM supplemented with 10% fetal bovine serum, 10% horse serum, 2 mM L-glutamine, 100 U/ml penicillin and 100 μg/ml streptomycin, were dissociated in single cells by several passages through a series of syringe needles (23G down to 25G). The medium and the ganglia were filtered to remove debris, topped up with 4 ml of DMEM medium and centrifuged (1100 rpm for 6 min). The final cell pellet was re-suspended in DMEM medium [supplemented with 100 ng/ml mouse Nerve Growth Factor (mouse-NGF-7S) and cytosine-β-D-arabinofuranoside free base (ARA-C) 2.5 μM]. The cells were plated on poly-L-lysine (8.3 μM)- and laminin (5 μM)-coated 25 mm glass cover slips and kept for 2 days at 37° C. in a humidified incubator gassed with 5% CO2 and air, then treated with Fura-2-AM-ester (5 μM) in a Ca^2+ buffer solution having the following composition (mM): CaCl2 1.4, KCl 5.4, MgSO4 0.4, NaCl 135, D-glucose 5, HEPES 10 with BSA (0.1%), at pH 7.4, for 40 min at 37° C. The cells were then washed twice with the Ca^2+ buffer solution and transferred to a chamber on the stage of a Nikon eclipse TE300 microscope. Fura-2-AM-ester was excited at […] to indicate relative [Ca^2+]i changes by the F340/F380 ratio recorded with a dynamic image analysis system (Laboratory Automation 2.0, RCS, Florence, Italy) and the cells were allowed (at least 10 min) to attain a stable fluorescence before beginning the experiment. A calibration curve was set up using buffer containing Fura-2-AM-ester and determinant concentrations of free Ca^2+. This curve was then used to convert the data obtained from the F340/F380 ratio to [Ca^2+]i (nM).
All exemplified compounds were tested at the concentration of 10 μM against the calcium uptake induced by 10 μM PF-4840154. For selected examples, the entire concentration response curves were constructed and the respective IC50 value calculated.

The test system of assay [2] is PF-4840154-induced mechanical hyperalgesia in rats. Nature of the assay: Agonist (PF-4840154)-induced mechanical hyperalgesia in rats. Format: in vivo. The conditions noted are these: Rattus norvegicus, 30 μmol/kg oral, PF-4840154 0.05 nmol/50 μl/paw intraplantar. An excerpt: Agonist (PF-4840154)-Induced Mechanical Hyperalgesia in Rats
The method is used to investigate the anti-hyperalgesic effects of the compounds listed in the present invention following agonist (PF-4840154)-induced hyperalgesic responses. The activity is indicative of TRPA1 receptor occupancy following oral dosing. Specifically, male SD rats (Charles River, Italy) weighing 70-100 g. were used. The anti-hyperalgesic effects were investigated using the electronic dynamometer test. PF-4840154 (Sigma, USA) was used to induce mechanical hyperalgesia. Local, intraplantar injection of PF-4840154 at 0.05 nmol/50 μl/paw caused the reduction of the hind paw withdrawal response induced by mechanical stimuli. Mechanical stimulation was induced in basal condition and 30, 60, 120, 180 and 240 minutes after the oral administration of the antagonists dissolved in 2.5% DMSO and 30% Solutol. Compounds were orally administered (30 μmol/kg/10 ml) to rats 1 hour before the injection of PF-4840154 into the plantar surface of a rat's hind using a micro syringe.

Assay [3] addresses T2, native human TRPA1 receptors (Homo sapiens, UniProt O75762).
T2 construct: stably expressing native human TRPA1 receptors were used; endogenous in cells; host or cells: A549 human lung adenocarcinoma epithelial cell line
In words: PF-4840154 (1 μM)-induced Ca2+ fluorescence measurements in A549 cell line. Format: cell-based. As to conditions: for inhibition at 10 µM: 10 μM compound against 1 μM PF-4840154, A549 cells; for pIC50: against PF-4840154 (1 μM)-evoked [Ca2+]i mobilization, A549 cells. The method, boiled down: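 A549 cells stably expressing native human TRPA1, Fluo-4 AM loaded; fluorescence Ca2+ read in HBSS with probenecid and Brilliant Black at 36.5 °C. Compounds tested alone for agonism and against 1 μM PF-4840154 for inhibition at initial 10 μM; IC50 from full concentration-response curves for selected compounds.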

Assay [4] concerns oxaliplatin-induced mechanical hyperalgesia in rats. Nature of the assay: Oxaliplatin-induced mechanical hyperalgesia in rats. The conditions noted are these: Rattus norvegicus, 168 h, 30 μmol/kg oral, 7 days post i.v. oxaliplatin 2.5 mg/kg. Format: in vivo. As to the method:
Oxaliplatin-Induced Mechanical Hyperalgesia in Rats
The method described by Nassini et al. (Pain, 2011, 152(7), 1621-31) was used with minor modifications. Restrained rats were treated with a single intravenous bolus injection of oxaliplatin (2.5 mg/kg) dissolved in normal saline. This approach was sufficient to elicit reproducible allodynic behaviour evident 3 days post injection and during the day thereafter. For convenience all acute experiments were conducted 7 days post injection when compounds were orally administered at 30 μmol/kg.

Setting [5] is: read-out: % of reversal of mechanical allodynia.
Setting [6] is: read-out: Maximal inhibition (%).

pIC50: −log10 of the molar value. Like-named read-outs stand apart in the source and are kept apart here.

T1 sequence (Q6RI86 whole entry): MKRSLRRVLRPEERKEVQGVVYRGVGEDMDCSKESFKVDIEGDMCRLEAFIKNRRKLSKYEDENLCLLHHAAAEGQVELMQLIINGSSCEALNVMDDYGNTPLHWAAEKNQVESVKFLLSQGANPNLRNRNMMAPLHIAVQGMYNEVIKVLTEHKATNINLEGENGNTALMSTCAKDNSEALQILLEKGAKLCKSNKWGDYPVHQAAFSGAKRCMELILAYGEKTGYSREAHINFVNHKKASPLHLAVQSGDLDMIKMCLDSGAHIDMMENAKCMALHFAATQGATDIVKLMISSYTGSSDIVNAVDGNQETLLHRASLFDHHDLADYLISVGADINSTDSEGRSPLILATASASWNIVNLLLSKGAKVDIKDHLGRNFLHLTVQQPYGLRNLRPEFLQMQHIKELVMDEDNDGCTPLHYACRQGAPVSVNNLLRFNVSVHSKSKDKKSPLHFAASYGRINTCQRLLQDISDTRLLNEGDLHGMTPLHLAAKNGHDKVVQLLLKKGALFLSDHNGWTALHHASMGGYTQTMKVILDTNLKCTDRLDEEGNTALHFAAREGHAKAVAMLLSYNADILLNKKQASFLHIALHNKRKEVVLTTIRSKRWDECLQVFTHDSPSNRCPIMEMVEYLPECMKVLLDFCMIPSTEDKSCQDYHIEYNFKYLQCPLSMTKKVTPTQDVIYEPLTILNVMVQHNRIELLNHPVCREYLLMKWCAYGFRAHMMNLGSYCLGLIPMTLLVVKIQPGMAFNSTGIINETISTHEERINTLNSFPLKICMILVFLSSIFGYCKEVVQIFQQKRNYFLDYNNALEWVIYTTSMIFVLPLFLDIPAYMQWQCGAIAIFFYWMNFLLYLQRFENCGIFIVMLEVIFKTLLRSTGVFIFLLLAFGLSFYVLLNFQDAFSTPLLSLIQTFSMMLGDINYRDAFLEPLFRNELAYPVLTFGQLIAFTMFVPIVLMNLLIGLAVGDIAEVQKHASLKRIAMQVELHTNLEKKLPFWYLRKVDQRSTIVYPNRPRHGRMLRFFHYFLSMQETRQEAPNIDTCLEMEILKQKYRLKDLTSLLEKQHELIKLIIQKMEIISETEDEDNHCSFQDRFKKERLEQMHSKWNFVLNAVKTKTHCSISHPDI
T2 sequence (O75762 whole entry): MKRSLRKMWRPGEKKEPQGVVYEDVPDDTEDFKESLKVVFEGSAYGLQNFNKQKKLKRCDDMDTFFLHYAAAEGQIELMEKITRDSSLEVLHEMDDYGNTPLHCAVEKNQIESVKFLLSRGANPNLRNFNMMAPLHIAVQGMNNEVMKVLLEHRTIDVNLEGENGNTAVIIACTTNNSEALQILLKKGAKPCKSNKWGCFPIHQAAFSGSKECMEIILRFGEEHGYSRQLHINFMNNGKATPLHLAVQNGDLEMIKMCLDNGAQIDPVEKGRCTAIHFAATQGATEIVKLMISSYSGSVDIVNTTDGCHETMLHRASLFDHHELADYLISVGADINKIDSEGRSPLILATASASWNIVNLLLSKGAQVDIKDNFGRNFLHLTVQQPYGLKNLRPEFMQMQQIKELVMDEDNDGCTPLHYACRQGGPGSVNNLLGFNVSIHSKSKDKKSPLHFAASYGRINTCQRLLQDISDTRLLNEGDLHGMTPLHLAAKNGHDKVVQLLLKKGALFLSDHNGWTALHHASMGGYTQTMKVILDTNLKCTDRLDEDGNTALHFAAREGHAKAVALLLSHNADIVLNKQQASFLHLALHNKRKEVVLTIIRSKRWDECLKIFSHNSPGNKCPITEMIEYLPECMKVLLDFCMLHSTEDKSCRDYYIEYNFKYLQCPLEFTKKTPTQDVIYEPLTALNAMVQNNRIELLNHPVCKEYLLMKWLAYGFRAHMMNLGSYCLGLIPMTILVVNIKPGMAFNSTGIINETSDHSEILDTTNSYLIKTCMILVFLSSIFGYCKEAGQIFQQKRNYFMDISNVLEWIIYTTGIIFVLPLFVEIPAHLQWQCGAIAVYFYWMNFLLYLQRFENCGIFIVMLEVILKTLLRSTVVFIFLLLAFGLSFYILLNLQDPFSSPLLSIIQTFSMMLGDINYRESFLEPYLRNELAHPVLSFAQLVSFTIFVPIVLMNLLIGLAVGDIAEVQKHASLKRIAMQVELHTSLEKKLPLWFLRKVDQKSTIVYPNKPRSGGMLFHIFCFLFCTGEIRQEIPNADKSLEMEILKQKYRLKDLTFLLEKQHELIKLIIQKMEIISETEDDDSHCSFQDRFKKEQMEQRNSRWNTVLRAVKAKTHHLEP

Take `C=C(C(=O)NCc1ccnc(-c2ccc(OC(F)(F)F)cc2)c1)N(CC)S(=O)(=O)c1ccc(Cl)s1` [Example 7, 2-[(5-chloro-2-thienyl)sulfonyl-ethyl-amino]-N-[[2-[4-(trifluoromethoxy)phenyl]-4-pyridyl]methyl]prop-2-enamide]: the values for the pIC50 in assay [1] and in assay [3] were 7.54 and 7.44, respectively. Further, the inhibition in vivo at 30 µmol/kg in assay [2] (setting [5]) and in assay [2] (setting [6]) was 74% throughout. Also, the inhibition (in general, the change of the read-out against control, counted positive when it falls) at 10 µM in assay [3] was 100%.

Consider `C=C(C(=O)NCc1cccc(-c2ccc(C(F)(F)F)cc2)c1)N(CC)S(=O)(=O)c1ccc(Cl)cc1` [Example 10, 2-[(4-chlorophenyl)sulfonyl-ethyl-amino]-N-[[3-[4-(trifluoromethyl)phenyl]phenyl]methyl]prop-2-enamide], for which the results for the pIC50 in assay [1] and in assay [3] were 7.33 and 7.60, respectively. Besides, the inhibition in vivo at 30 µmol/kg in assay [2] (setting [5]) and in assay [2] (setting [6]) was 63% each time. This molecule also came in with an inhibition at 10 µM in assay [3] of 99%.

In the case of `C=C(C(=O)NCc1cccc(-c2ccc(OC(F)(F)F)cc2)c1)N(CC)S(=O)(=O)c1ccc(F)cc1` [Example 11, 2-[ethyl-(4-fluorophenyl)sulfonyl-amino]-N-[[3-[4-(trifluoromethoxy)phenyl]phenyl]methyl]prop-2-enamide], the negative logarithm of the IC50 (pIC50) (as a rule, the negative decadic logarithm of the IC50, by convention in mol/L) was 7.70 in assay [1] and 7.77 in assay [3]. Besides, the inhibition in vivo at 30 µmol/kg in assay [2] (setting [5]) and in assay [2] (setting [6]) was 72% each time. This molecule also came in with an inhibition at 10 µM in assay [3] of 99%.

Consider `C=C(C(=O)NCc1cc(-c2ccc(C(F)(F)F)cc2)nc(N2CCCC2)c1)N(CC)S(=O)(=O)c1ccc(Cl)cc1` [Example 14, 2-[(4-chlorophenyl)sulfonyl-ethyl-amino]-N-[[2-pyrrolidin-1-yl-6-[4-(trifluoromethyl)phenyl]-4-pyridyl]methyl]prop-2-enamide], for which the results for the negative logarithm of the IC50 (pIC50) in assay [1] and in assay [3] were 7.22 and 7.40, respectively. Also, the inhibition in vivo at 30 µmol/kg in assay [2] (setting [5]) and in assay [2] (setting [6]) was 75% in each case. In assay [3], this molecule registered an inhibition at 10 µM of 100%.

With `C=C(C(=O)NCc1cc(-c2ccc(C(F)(F)F)cc2)nc(N2CCCC2)c1)N(CC)S(=O)(=O)c1ccc(Cl)s1` [Example 15, 2-[(5-chloro-2-thienyl)sulfonyl-ethyl-amino]-N-[[2-pyrrolidin-1-yl-6-[4-(trifluoromethyl)phenyl]-4-pyridyl]methyl]prop-2-enamide], the pIC50 in assay [1] is 7.49; in assay [3], 7.66. Moreover, the inhibition in vivo at 30 µmol/kg in assay [2] (setting [5]) and in assay [2] (setting [6]) was 72% each time. In assay [3], this molecule yielded an inhibition at 10 µM of 100%.

Consider `C=C(C(=O)NCc1cc(-c2ccc(C(F)(F)F)cc2)nc(-c2ccc(C(F)(F)F)cc2)c1)N(CC)S(=O)(=O)c1ccc(Cl)cc1` [Example 19, N-[[2,6-bis[4-(trifluoromethyl)phenyl]-4-pyridyl]methyl]-2-[(4-chlorophenyl)sulfonyl-ethyl-amino]prop-2-enamide], for which the negative logarithm of the IC50 (pIC50) was 7.17 in assay [1] and 7.13 in assay [3]. For the same molecule, the inhibition in vivo at 30 µmol/kg in assay [2] (setting [5]) and in assay [2] (setting [6]) was 74% in each case. This molecule also came in with an inhibition at 10 µM in assay [3] of 100%.

In the case of `C=C(C(=O)NCc1cc(-c2ccc(C(F)(F)F)cc2)nc(N2CCCC2)c1)N(CC)S(=O)(=O)c1ccc(F)cc1` [Example 38, 2-[ethyl-(4-fluorophenyl)sulfonyl-amino]-N-[[2-pyrrolidin-1-yl-6-[4-(trifluoromethyl)phenyl]-4-pyridyl]methyl]prop-2-enamide], the values for the pIC50 in assay [1] and in assay [3] were 7.85 and 7.77, respectively. The inhibition in vivo at 30 µmol/kg in assay [2] (setting [5]) and in assay [2] (setting [6]) was 87% each time. Further, the inhibition at 10 µM in assay [3] was found to be 100%.

Regarding `CCN(C1(C(=O)NCc2cc(OC)nc(-c3ccc(C(F)(F)F)cc3)c2)CC1)S(=O)(=O)c1ccc(Cl)s1` [Example 50, 1-[(5-chloro-2-thienyl)sulfonyl-ethyl-amino]-N-[[2-methoxy-6-[4-(trifluoromethyl)phenyl]-4-pyridyl]methyl] cyclopropanecarboxamide], the inhibition in vivo at 30 µmol/kg in assay [2] (setting [5]) was 76%; in assay [2] (setting [6]) it was 76%; in assay [4] (setting [5]), 82%; in assay [4] (setting [6]) it was 82%. In addition, 10 µM produced 100% inhibition in assay [3]. Further, in assay [3], the pIC50 is 7.72.

On to `CCN(C1(C(=O)NCc2cc(-c3ccc(C(F)(F)F)cc3)nc(N3CCCC3)c2)CC1)S(=O)(=O)c1ccc(F)cc1` [Example 51, 1-[ethyl-(4-fluorophenyl)sulfonyl-amino]-N-[[2-pyrrolidin-1-yl-6-[4-(trifluoromethyl)phenyl]-4-pyridyl]methyl]cyclopropanecarboxamide], for which the inhibition in vivo at 30 µmol/kg in assay [2] (setting [5]) worked out at 76%; in assay [2] (setting [6]), 76%; in assay [4] (setting [5]), 65%; in assay [4] (setting [6]), 65%. The inhibition at 10 µM in assay [3] is 100%. The pIC50 in assay [3] was 7.39.

As to `CCOc1cc(CNC(=O)C2(N(CC)S(=O)(=O)c3ccc(Cl)s3)CC2)cc(-c2ccc(C(F)(F)F)cc2)n1` [Example 53, 1-[(5-chloro-2-thienyl)sulfonyl-ethyl-amino]-N-[[2-ethoxy-6-[4-(trifluoromethyl)phenyl]-4-pyridyl]methyl] cyclopropanecarboxamide], the inhibition in vivo at 30 µmol/kg in assay [2] (setting [5]) stood at 89%; in assay [2] (setting [6]), 89%; in assay [4] (setting [5]), 83%; in assay [4] (setting [6]), 83%. The molecule also had an inhibition at 10 µM in assay [3] of 100%. In assay [3], this molecule gave a negative-log IC50 (pIC50) of 7.77.

Turning to `CCN(C1(C(=O)NCc2cccc(-c3ccc(C(F)(F)F)cc3)c2)CC1)S(=O)(=O)c1ccc(Cl)s1` [Example 59, 1-[(5-chloro-2-thienyl)sulfonyl-ethyl-amino]-N-[[3-[4-(trifluoromethyl)phenyl]phenyl]methyl]cyclopropanecarboxamide], the inhibition in vivo at 30 µmol/kg in assay [2] (setting [5]) came out at 111%; in assay [2] (setting [6]), 111%; in assay [4] (setting [5]), 67%; in assay [4] (setting [6]) it was 67%. For the same molecule, the inhibition at 10 µM in assay [3] was determined as 99%. This molecule gave a pIC50 in assay [3] of 7.42.

Source of the values: US9409864B2, “Sulfonamide TRPA1 receptor antagonists” (ARIO PHARMA LIMITED, priority 2013, dated 2016).
